Reference: patent US20210213010A1, “TLR7/8 AGONISTS AND LIPOSOME COMPOSITIONS” (Torque Therapeutics, Inc., priority 2018, published 2021)
“Also recorded” adds a separate entry of the source.

What was measured:
[1] = Remote loading efficiency of small molecules into liposomes (PD-10 size exclusion, HPLC); format: physicochemical
Procedure: A solution of the small molecule (modified TLR agonist) was lyophilized in a vial equipped with a magnetic stir bar over night to form a fluffy white powder. This powder was added either formulation F1 or F2 to the wanted drug/lipid ratio. The resulting mixture was stirred at 55° C. or 41° C. for formulation F1 and F2 respectively for 3h, then allowed to cool to rt before the solutions were refrigerated and stored at 4° C.
Remote loading efficiency was determined at 1 h and 3 h by taking out 100 μL of the mixture and applying this and 900 μL buffer (25 mM HEPES, 10 vol % sucrose buffer, pH 7.4) to a PD-10 column size exclusion column. Following, 10×1 mL fractions were collected, and the small molecule compound concentrations in the loading mixture and in the liposome containing fractions were determined on analytical HPLC. Loading efficiency was calculated as percentage of molecules found in liposome containing fractions out of the applied amount. The general procedure for the small molecule remote loading is visualized in FIG. 3. The general concept of remote loading imidazoquinolines in liposomes that are dialyzed against HEPES is visualized in FIG. 4.

[2] = Cryo-TEM of remote loaded liposomes (intraliposomal precipitation); format: physicochemical
Procedure: CryoTEM samples of 3 μL of liposome solution was placed on a lacy carbon 300 mesh copper TEM grid, blotted and plunge frozen in liquid ethane using a FEI Vitrobot Mark IV. Samples were imaged using a FEI Tecnai G2 20 TWIN transmission electron microscope operated at 200 keV in low dose mode with a FEI High-Sensitive (HS) 4 k×4 k Eagle camera.

[3] = tested on: whole human blood; assay: IL-6 cytokine expression in stimulated whole human blood (ELISA); format: cell-based
Procedure: (§1) This example describes the general procedure used to assess the level of cytokine IL-6 and IL-12p40 expressions upon stimuli of whole human blood with small molecules or small molecules in liposomal formulations F1 and F2. 10 mM DMSO solutions of the small molecules were diluted in RPMI media (RPMI-1640, Sigma Aldrich) with 1% penicillin/streptomycin (p/s). […], of each dilution was transferred to Nunc™ 96-Well Polystyrene Conical Bottom MicroWell™ Plates in duplicates. Blood was drawn from two human donors, diluted in RPMI with 1% p/s and added to each well to reach final concentrations of 10 μM, 1 μM, and 0.1 μM of the small molecules. The plates were incubated at 37° C. in a cell incubator for 24h. The plates were then spun down in a plate centrifuge with 3200 revolutions per minute (rpm) for 10 min before 50 uL of the supernatant was transferred to new 96-well plates. The supernatant samples were subsequently stored at −80° C. until the day of cytokine measurements.
(§2) The level of cytokine expression was measured using either an IL-6 ELISA Kit (RnDSystems, cat #DY206) for IL-6, or an IL-12p40 ELISA Kit (RnDSystems, cat #DY1240) according to the manufacturer's protocols. This general procedure was used to generate the examples 24-33.

[4] = tested on: whole human blood; assay: IL-12p40 cytokine expression in stimulated whole human blood (ELISA); format: cell-based
Procedure: as §1, §2

[5] = free small molecule, 10, 1, 0.1 μM, 24 h, two donors

With `CCOCc1nc2c(N)nc3ccccc3c2n1CCN` [MK079-D, 1-(2-aminoethyl)-2-(ethoxymethyl)-1H-imidazo[4,5-c]quinolin-4-amine] the “Remote loading efficiency 1 h (%)” value ([1]; formulation F1, HEPES, drug/lipid ratio 0.06, 1 h) was 87%, the “Remote loading efficiency 3 h (%)” value ([1]; formulation F1, HEPES, drug/lipid ratio 0.06, 3 h) was 98% and the “Remote loading efficiency 1 h (%)” value ([1]; formulation F1, HEPES, drug/lipid ratio 0.10, 1 h) was 93%. The “Remote loading efficiency 3 h (%)” value ([1]; formulation F1, HEPES, drug/lipid ratio 0.10, 3 h) was 95%, the “Remote loading efficiency 1 h (%)” value ([1]; formulation F1, HEPES, drug/lipid ratio 0.25, 1 h) was 90% and the “Remote loading efficiency 3 h (%)” value ([1]; formulation F1, HEPES, drug/lipid ratio 0.25, 3 h) was 98%. The “Remote loading efficiency 1 h (%)” value ([1]; formulation F1, HEPES, drug/lipid ratio 0.50, 1 h) was 77%, the “Remote loading efficiency 3 h (%)” value ([1]; formulation F1, HEPES, drug/lipid ratio 0.50, 3 h) was 70% and the “Remote loading efficiency 1 h (%)” value ([1]; formulation F1, TAPS pH 8.5, drug/lipid ratio 0.06, 1 h) was 80%. The “Remote loading efficiency 3 h (%)” value ([1]; formulation F1, TAPS pH 8.5, drug/lipid ratio 0.06, 3 h) was 77%, the “Remote loading efficiency 1 h (%)” value ([1]; formulation F2, HEPES, drug/lipid ratio 0.06, 1 h) was 81% and the “Remote loading efficiency 3 h (%)” value ([1]; formulation F2, HEPES, drug/lipid ratio 0.06, 3 h) was 81%. For the same molecule, the “Remote loading efficiency 1 h (%)” value ([1]; formulation F2, HEPES, drug/lipid ratio 0.10, 1 h) was 82%, the “Remote loading efficiency 3 h (%)” value ([1]; formulation F2, HEPES, drug/lipid ratio 0.10, 3 h) was 88% and the “Remote loading efficiency 1 h (%)” value ([1]; formulation F2, HEPES, drug/lipid ratio 0.25, 1 h) was 90%. For the same molecule, the “Remote loading efficiency 3 h (%)” value ([1]; formulation F2, HEPES, drug/lipid ratio 0.25, 3 h) was 94%, the “Remote loading efficiency 1 h (%)” value ([1]; formulation F2, HEPES, drug/lipid ratio 0.50, 1 h) was 73% and the “Remote loading efficiency 3 h (%)” value ([1]; formulation F2, HEPES, drug/lipid ratio 0.50, 3 h) was 57%. The “Remote loading efficiency 1 h (%)” value ([1]; formulation F2, TAPS pH 8.5, drug/lipid ratio 0.06, 1 h) was 80%, the “Remote loading efficiency 3 h (%)” value ([1]; formulation F2, TAPS pH 8.5, drug/lipid ratio 0.06, 3 h) was 70% and the “Precipitation in liposomes (Cryo-TEM)” value ([2]; formulation F1, HEPES, drug/lipid ratio 0.25) was “precipitation of the small molecule inside the aqueous core of the liposomes”. For the same molecule, the “Precipitation in liposomes (Cryo-TEM)” value ([2]; formulation F1, HEPES, drug/lipid ratio 0.50) was “precipitation of the small molecule in the aqueous core of the liposomes”, the “Precipitation in liposomes (Cryo-TEM)” value ([2]; formulation F2, drug/lipid ratio 0.25) was “precipitation of the small molecule in the aqueous core of the liposomes” and the “Precipitation in liposomes (Cryo-TEM)” value ([2]; formulation F2, drug/lipid ratio 0.50) was “precipitation of the small molecule in the aqueous core of the liposomes”. For the same molecule, the “Expression of IL-6 upon stimulation of whole human blood” value [3, 5] was “expression of IL-6 at 10 μM in both donors”, the “Expression of IL-6 upon stimulation of whole human blood” value ([3]; remote loaded in formulation F1, HEPES, drug/lipid ratio 0.06) was “an expression of IL-6 at 10 μM” and the “Expression of IL-6 upon stimulation of whole human blood” value ([3]; remote loaded in formulation F1, TAPS, drug/lipid ratio 0.06) was “no expression of IL-6 at 10 μM”. For the same molecule, the “Expression of IL-6 upon stimulation of whole human blood” value ([3]; remote loaded in formulation F2, HEPES, drug/lipid ratio 0.06) was “able to induce expression of IL-6”, the “Expression of IL-6 upon stimulation of whole human blood” value ([3]; remote loaded in formulation F2, TAPS, drug/lipid ratio 0.06) was “resulted in an expression of IL-6” and the “Expression of IL-12p40 upon stimulation of whole human blood” value [4, 5] was “expression of IL-12p40 at 10 μM in both donors”. For the same molecule, the “Expression of IL-12p40 upon stimulation of whole human blood” value ([4]; remote loaded in formulation F1, HEPES or TAPS, drug/lipid ratio 0.06) was “did not lead to any expression of IL-12p40” and the “Expression of IL-12p40 upon stimulation of whole human blood” value ([4]; remote loaded in formulation F2, HEPES or TAPS, drug/lipid ratio 0.06) was “Induction of IL-12p40 expression was observed; also recorded: larger expression of IL-12p40 when dialyzed against HEPES compared to TAPS”.
